Data published in patent US20120157521A1, “TREATMENT OF MACULAR DEGENERATION” (Bonomics Limited, priority 2009, published 2012).

Columns and labels:
tubulin = test: Tubulin polymerisation assay; format: biochemical
Method: Tubulin Polymerisation Assay: Tubulin polymerisation inhibition assays were performed using a fluorescent-based detection kit (#BK011, Cytoskeleton) according to the instructions of the manufacturer. The test compound was added to a 2 mg/ml tubulin solution containing 20% glycerol and 1 mM GTP in 1× Buffer 1 (Buffer 1: 80 mM Piperazine-N,N′-bis[2-ethanesulfonic acid]sequisodium salt; 2 mM magnesium chloride; 0.5 mM Ethylene glycol-bis(b-amino-ethyl ether)N,N,N′,N′-tetra-acetic acid, pH 6.9, 10 uM fluorescent reporter). Fluorescence was measured over a period of 42 minutes at 1 minute intervals. Increased fluorescence indicates increase in tubulin polymerisation. There is a ten-fold increase in the affinity of the fluorescent reporter for polymerised tubulin compared to monomeric tubulin subunits. The result is a fluorescence signal that closely follows tubulin polymerisation.

[1] = system: HUVEC endothelial cell capillary formation; test: Endothelial cell capillary formation on Matrigel; conditions: HUVEC, 25,000/well, 96-well plates, 22 hrs
Method: DMSO vehicle was included in the analysis as a negative control. Cells were plated at 25,000/well in 96-well plates and cultured for 22 hrs.
DMSO vehicle (C, F) was included in the analysis as a negative control. Cells were plated at 25,000/well in 96-well plates and cultured for 22 hrs.

[2] = system: HUVEC cells under activated cell conditions; test: Disruption of endothelial cell cytoskeleton (actin staining); format: cell-based, human; conditions: 10 nM, 20 minutes, actin stain
Method: FIG. 7 depicts disruption of endothelial cell cytoskeleton by compound Example 2. Endothelial cells were cultured in the presence of 10 nM compound Example 2 or DMSO control, and after 20 mins washed, fixed and stained with actin.
HUVEC cells were cultured under “activated” cell conditions in the presence of 10 nM compound Example 2 or DMSO control (using HUVEC cells). After 20 minutes cells were washed, fixed and stained for actin. […] A bleb is defined as an irregular bulge in the plasma membrane of a cell caused by localized decoupling of the cytoskeleton from the plasma membrane. Blebbing is the term used to describe the formation of blebs.

[3] = system: stable pre-formed HUVEC capillary tubes; test: Disruptive activity on stable pre-formed capillary tubes on Matrigel; conditions: 5 hrs after compound, at concentrations that inhibit capillary formation
[4] = system: quiescent human abdominal aorta endothelial cells (HAAEC); test: Proliferation assay - quiescent endothelium, HAAEC; conditions: Endothelial cell, read-out: Quiescent EC50
[5] = system: quiescent human umbilical vein endothelial cells (HUVEC); test: Proliferation assay - quiescent endothelium (MTT), HUVEC; format: cell-based; conditions: 48 hrs
Method: Proliferation Assay—quiescent endothelium: Human umbilical vein endothelial cells (CC-2519, Clonetics) were plated at 15000 cells/well in EBM2 (CC-3156, Clonetics)+0.5% FBS (CC-4101A, Clonetics)+GA-1000 (CC-4381A, Clonetics) in a 96 well plate in triplicate. Cells were cultured overnight at 37° C. 5% CO2. Medium was subsequently replaced with fresh medium including the compound or negative control. Cells were cultured for a period of 48 hrs. An MTT assay was performed to measure changes in cell numbers. Briefly, 20 μl of MTT reagent was added to cells containing 100 μl of EBM2+0.5% FBS and incubated at 37° C. for 2 hours. Absorbance was measured at 492 nm.

Row | Compound | Tubulin polymerisation inhibition (in words) (tubulin) | Effect on capillary formation on Matrigel [1] | Disruption of endothelial cell cytoskeleton (blebbing) [2] | Disruption of stable pre-formed capillaries [3] | EC50 [4] | EC50 [5]
1 | COc1cc(C(=O)c2c(C)oc3c(O)c(OC)ccc23)cc(OC)c1OC [Example 1, 2-Methyl-7-hydroxy-3-(3,4,5-trimethoxybenzoyl)-6-methoxybenzofuran] | potent tubulin polymerisation inhibitor | – | – | – | – | –
2 | COc1cc(C(=O)c2c(C)oc3c(OP(=O)([O-])[O-])c(OC)ccc23)cc(OC)c1OC.[Na+].[Na+] [Example 2, Disodium 6-methoxy-2-methyl-3-(3,4,5-trimethoxybenzoyl)benzofuran-7-yl phosphate] | – | inhibited | clear evidence of “blebbing” | does not disrupt stable pre-formed capillaries | 12.5 nM | 23.3 nM
